In paper PMC7248707 (Molecules, 2020):

Key:
rat MOR = biological target: rat MOR; set-up: method as in PMID 2537427; conditions: rat brain tissue; cited from earlier work
[1] = cited from earlier work
MOR = conditions: read-out: IC50 in the GPI bioassay; cited from earlier work
human MOR [2] = biological target: T1, human MOR (Homo sapiens, UniProt P35372)
human MOR [3] = biological target: T1, human MOR; remark: listed apart in the source

T1 sequence (P35372 whole entry): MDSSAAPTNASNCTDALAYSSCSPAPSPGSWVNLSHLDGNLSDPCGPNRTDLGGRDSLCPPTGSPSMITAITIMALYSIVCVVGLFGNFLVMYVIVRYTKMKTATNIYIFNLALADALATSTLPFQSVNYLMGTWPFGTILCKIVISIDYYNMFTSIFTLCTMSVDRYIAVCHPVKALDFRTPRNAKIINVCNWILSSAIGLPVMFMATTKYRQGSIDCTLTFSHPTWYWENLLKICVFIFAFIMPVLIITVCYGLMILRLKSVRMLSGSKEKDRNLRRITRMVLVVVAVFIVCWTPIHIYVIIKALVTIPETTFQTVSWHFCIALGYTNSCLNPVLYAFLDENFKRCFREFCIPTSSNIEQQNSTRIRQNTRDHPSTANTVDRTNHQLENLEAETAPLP

Compound: NCCCC[C@H](NC(=O)[C@H](Cc1ccccc1)NC(=O)[C@@H](CCCN=C(N)N)NC(=O)[C@@H](N)Cc1ccc(O)cc1)C(N)=O [DALDA, H-Tyr-D-Arg-Phe-Lys-NH2]
- Ki (rat MOR): 1.69 nM
- BBB crossing / CNS entry [1]: does not cross the BBB

Compound: Cc1cc(O)cc(C)c1C[C@H](N)C(=O)N[C@H](CCCNC(=N)N)C(=O)N[C@H]1Cc2ccccc2CN(CCC(N)=O)C1=O [KGOP01]
- IC50 (MOR): 0.8 nM
- better MOR affinity than DAMGO (human MOR [2]; relative to DAMGO): 13 fold
- increase in MOR affinity versus [Dmt^1]DALDA (human MOR [2]; relative to [Dmt^1]DALDA): ca. 2 fold
- enhanced MOR agonist potency versus [Dmt^1]DALDA (human MOR [3]): 5 fold
- EC50 (human MOR [3]; read-out: Agonist Activity EC50): 0.1 ± 0.02 nM
- BBB crossing / CNS entry [1]: can enter the CNS
